Measured values reported in doi:10.64898/2025.12.05.692609v2, “Early intervention with a PACAP lactoside following repetitive mild traumatic brain injury prevents persistent LHb hyperactivity and motivational deficits in male mice” (bioRxiv, 2025).
Read-outs that look alike come from different tables or passages of the source. Where a SMILES comes first, the peptide text is derived from it. [ ]: non-standard residue; d: D form. The star is where a group is joined. X1 = OC[C@H]1O[C@@H](O[C@H]2[C@H](O)[C@@H](O)[C@H](*)O[C@@H]2CO)[C@H](O)[C@@H](O)[C@H]1O; Nle = CCCC[C@H](N)C(=O)O

Columns and labels:
[1] = PWR membrane partitioning into receptor-free egg phosphatidylcholine membranes; assay type: physicochemical
[2] = Time-locked brain microdialysis and blood sampling pharmacokinetics; conditions: for Brain Dialysate: AUC / Brain Dialysate: Cmax / Brain Dialysate: Tmax: 3 mg/kg IP, striatal microdialysis 0-60 min; for Brain Dialysate: AUC: TES2300 and TES2320 co-injected, estimated concentration by probe recovery; for Brain Dialysate: AUC / Brain Dialysate: Cmax: LC-MS/MS, mean ± SEM; for Brain Dialysate: Cmax: estimated by probe recovery
Description: (§1) Mice (PN56-70) were anesthetized with isoflurane (1%) mixed with medical grade oxygen (0.75 L/min). Two incisions were made: a 0.5 cm incision in between the scapulae and a 1-cm ventral neck incision right of midline. The right carotid artery was isolated, ligated cranially with 4-0 silk, and temporarily occluded at the caudal end of the vessel with a micro clamp. A small incision was made into the carotid artery and PE-10 tubing, preflushed with heparin/glycerol (500 IU/ml, 50:50) and connected to a 28-gauge PinPort^TM (PNP3F28; Instech, Plymouth Meeting, PA), was advanced toward the heart. The clamp was released, the caudal ligature secured the catheter, and the catheter was tunneled subcutaneously to the scapular incision. Both incisions were closed with staples. The mouse was immediately transferred to a stereotaxic frame to implant the microdialysis probe.
(§2) A midsagittal skull incision was followed by a craniotomy (AP +0.5 mm, ML +2.0 mm from bregma). The dura was removed and a microdialysis probe (CMA12, 8309664, 4 mm membrane, 100 kDa cutoff; HBio, Holliston, MA) was inserted into the striatum (DV −5.0 mm).
(§3) Microdialysis probes were primed with artificial cerebrospinal fluid aCSF (15 mM Tris HCl, 10 mM Tris base, 126 mM NaCl, 2.5 KCl, 1.2 mM NaH2PO4, 2mM Na2SO4, and adjusted pH to 7.4) containing 0.05% bovine serum albumin (BSA) at a rate of 1 μL/minute using a two channel dual syringe pump (Fusion 101A Syringe Pump; Chemyx, Stafford, TX) for one-hour and then placed into the striatum at the coordinates listed above for 30-minutes prior to collecting baseline dialysate. Using the other pump channel, the preservation solution containing 150 ng/mL DADLE ([D-Ala2, D-Leu5]-Enkephalin; 10% acetic acid in 0.05% BSA in aCSF as an internal standard) is combined with the dialysate immediately via a micro-Tee at a flow rate of 1 μL/min (Figure 2A.). […] Dialysate was collected at −10, +10, +20, +30, +40, +50, and +60 minutes. Blood was collected at −5, +1, +5, +15, +25, +35, +45, and +55 minutes to correspond to the midpoint of the dialysate fraction. To separate plasma from whole blood, each sample was collected in ethylenediamine tetraacetic acid capillary tubes (CT-CB300-K2EDTA; Sarstedt, Nümbrecht, Germany), inverted repeatedly for 30 seconds, and centrifuged for 5 minutes at 2,500 x g in a refrigerated centrifuge (Galaxy Mini Centrifuge; VWR, Radnor, PA).
(§4) Biological sample preparation: Plasma samples (20 µL) were mixed with 20 µL of an internal standard working solution containing 150 ng/mL (DADLE) in 10% acetic acid. To precipitate proteins in both plasma and dialysate, 120 µL of ice-cold methanol was added to the plasma mixture and the dialysate samples (20 µL, premixed with preservation solution). After vortexing for 30 seconds, samples were centrifuged at 8,000 x g for 10-minutes at 4°C. The supernatant was evaporated using a Savant Speedvac concentrator. Dialysate and plasma samples were reconstituted in 20 μL of diluent (5% methanol and 0.1% formic acid in nanopure water).
(§5) Liquid chromatography and mass spectrometry: Samples were injected into the Thermo Fisher Scientific UHPLC-MS/MS TSQ system. Separation was achieved on an ACQUITY UPLC HSS T3 C18 Column (100 Å, 1.8 µm, 2.1 × 100 mm) and VanGuard pre-column (HSS T3 1.8 μm, 2.1 × 5 mm) and a HyperSep Retain PEP trap column (2.1 × 10 mm) with the column temperature set at 40 °C. We used a water-acetonitrile gradient with a flow rate of 0.2 mL/min and a total run time of 25. The mobile phases used were A: 0.1% v/v formic acid in deionized water and B: 0.1% v/v formic acid in acetonitrile, with the following conditions: 0 to 1 min (2 %B diverted to waste), 1.0 to 1.2 min (5% B), 1.2 min to 6 min (15% B), 6 min to 11 min (30% B), 11 min to 12.5 min (95% B), 12.5 min to 18 min (95% B), 18 min to 18.5 min (5 %B) 18.5 min to 23.5 min (5% B), 23.5 min to 25 min (2 %B). Injection volumes of 10 µL for dialysate and 5 µL for the plasma sample were used.

LHb neurons = assay: LHb neuronal excitability, intrinsic properties, rebound bursting, Ih and M-currents in slices after in vivo treatment; parameters: species or system male C57BL/6 mice; conditions: for effect on mTBI-induced LHb hyperexcitability (APs on depolarization): vs mTBI+vehicle P<0.0001, 2-way ANOVA
VPAC1 receptors = conditions: cited from earlier work
human PAC1 receptor = target: T1, human PAC1 receptor (Homo sapiens, UniProt P41586); assay: biochemical
T1 sequence (P41586 21-468): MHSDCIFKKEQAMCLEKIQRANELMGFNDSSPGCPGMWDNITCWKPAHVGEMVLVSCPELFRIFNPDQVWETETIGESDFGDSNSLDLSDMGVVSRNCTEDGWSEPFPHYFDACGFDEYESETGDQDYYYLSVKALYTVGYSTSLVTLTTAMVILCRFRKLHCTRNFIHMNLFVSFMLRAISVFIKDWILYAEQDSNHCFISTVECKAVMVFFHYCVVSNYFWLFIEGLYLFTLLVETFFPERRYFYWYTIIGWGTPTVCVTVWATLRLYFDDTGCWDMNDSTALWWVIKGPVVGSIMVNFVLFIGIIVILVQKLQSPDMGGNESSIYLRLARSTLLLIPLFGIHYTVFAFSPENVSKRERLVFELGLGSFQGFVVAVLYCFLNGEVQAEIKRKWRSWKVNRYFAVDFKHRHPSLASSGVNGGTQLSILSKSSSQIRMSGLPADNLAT
Description: Plasmon Waveguide Resonance (PWR) spectroscopy, an enhanced technology related to Surface Plasmon Resonance (SPR) is capable of monitoring molecular anisotropy and measuring mass and structural changes in real time along with molecular interactions with receptor in the lipid bilayer. PWR was utilized to quantify label-free ligand binding affinities. Intact cell membranes containing human PAC1 receptors (purified and isolated from CHO cells, as described below) were immobilized onto the silica surface of a PWR prism element.
The prism was integrated into a PWR spectrometer system (Mainline Scientific, Malvern, PA). […] Binding events, along with any associated conformational shifts in the receptor or lipid matrix, were directly monitored via the angular resonance shifts of parallel (p-polarized) and perpendicular (s-polarized) light.

[3] = test system: male C57BL/6 mice, repetitive closed-head mTBI
in vivo = conditions: C57Bl/6J, mouse, ip, 3 mg/kg
Description: as §1, §2, §3, §4, §5

[4] = C57Bl/6J mice, co-injected, n=4, SEM
[5] = C57Bl/6J mice, co-injected, n=4
[6] = C57Bl/6J, mouse, plasma, ip, 3 mg/kg, SEM
[7] = early intervention, 10 mg/kg i.p. x5
[8] = late intervention, single 10 mg/kg i.p.
[9] = C57Bl/6J mice, 3 mg/kg IP each, co-injected, 0-60 min, n=4, ratio paired t-test

CCCC[C@H](NC(=O)[C@H](CCC(N)=O)NC(=O)[C@H](CCCCN)NC(=O)[C@H](CCCNC(=N)N)NC(=O)[C@H](Cc1ccc(O)cc1)NC(=O)[C@H](CCCNC(=N)N)NC(=O)[C@H](CO)NC(=O)[C@H](Cc1ccc(O)cc1)NC(=O)[C@H](CO)NC(=O)[C@H](CC(=O)O)NC(=O)[C@@H](NC(=O)[C@H](Cc1ccccc1)NC(=O)[C@@H](NC(=O)CNC(=O)[C@H](CC(=O)O)NC(=O)[C@H](CO)NC(=O)[C@@H](N)Cc1c[nH]cn1)[C@@H](C)CC)[C@@H](C)O)C(=O)N[C@@H](C)C(=O)N[C@H](C(=O)N[C@@H](CCCCN)C(=O)N[C@@H](CCCCN)C(=O)N[C@@H](Cc1ccc(O)cc1)C(=O)N[C@@H](CC(C)C)C(=O)N[C@@H](CO)C(N)=O)C(C)C [TES2300] (H-HSDGIFTDSYSRYRKQ[Nle]AVKKYLS-NH2; N-terminus assumed)
affinity for PC bilayers relative to TES2320 ([1]; PWR, PC bilayers, unglycosylated variant vs TES2320): ten fold higher affinity
Kd ([1]; as quoted in the pharmacokinetics section, membrane not specified, read-out: Kd, affinity for the membrane): 0.114 nM
Brain Dialysate: AUC ([2]; C57Bl/6J mice, n=4, SEM): 703 ± 338 ng·min/mL
Brain Dialysate: Cmax [2, 4]: 64 ± 21 ng/mL
Brain Dialysate: Tmax [2, 5]: 8 min
Kp ([2]; C57Bl/6J, mouse, brain dialysate / plasma, ip, 3 mg/kg): 0.513
Tmax ([2]; C57Bl/6J, mouse, plasma, ip, 3 mg/kg): 4 min
AUC(0-t) [2, 6]: 22.8 ng·h/mL
Cmax [2, 6]: 106 ± 25 ng/mL
half-life [2, 6]: 8 ± 4 min

CCCC[C@H](NC(=O)[C@H](CCC(N)=O)NC(=O)[C@H](CCCCN)NC(=O)[C@H](CCCNC(=N)N)NC(=O)[C@H](Cc1ccc(O)cc1)NC(=O)[C@H](CCCNC(=N)N)NC(=O)[C@H](CO)NC(=O)[C@H](Cc1ccc(O)cc1)NC(=O)[C@H](CO)NC(=O)[C@H](CC(=O)O)NC(=O)[C@@H](NC(=O)[C@H](Cc1ccccc1)NC(=O)[C@@H](NC(=O)CNC(=O)[C@H](CC(=O)O)NC(=O)[C@H](CO)NC(=O)[C@@H](N)Cc1c[nH]cn1)[C@@H](C)CC)[C@@H](C)O)C(=O)N[C@@H](C)C(=O)N[C@H](C(=O)N[C@@H](CCCCN)C(=O)N[C@@H](CCCCN)C(=O)N[C@@H](Cc1ccc(O)cc1)C(=O)N[C@@H](CC(C)C)C(=O)N[C@@H](CO[C@@H]1O[C@H](CO)[C@@H](O[C@@H]2O[C@H](CO)[C@H](O)[C@H](O)[C@H]2O)[C@H](O)[C@H]1O)C(N)=O)C(C)C [TES2320] (H-HSDGIFTDSYSRYRKQ[Nle]AVKKYLS(X1)-NH2; N-terminus assumed)
effect on mTBI-enhanced Ih currents in LHb neurons (LHb neurons; [7]): insufficient to prevent this Ih enhancement
effect on mTBI-reduced M-currents in LHb neurons (LHb neurons; [7]): Neither early nor late TES2320 intervention in mTBI mice normalized this reduction
effect on mTBI-induced LHb hyperexcitability (APs on depolarization) (LHb neurons; early intervention, 10 mg/kg i.p. x5, n=85 cells/13 mice): normalized this hyperexcitability to sham levels
effect on mTBI-induced hyperpolarization-induced rebound bursting (LHb neurons; early intervention, 10 mg/kg i.p. x5, vs mTBI+vehicle p<0.01, 2-way ANOVA): normalize this mTBI-induced increase in rebound bursting
effect on mTBI-induced hyperpolarization-induced rebound bursting (LHb neurons; [8]): no effect
effect on mTBI-reduced M-currents in LHb neurons (LHb neurons; [8]): Neither early nor late TES2320 intervention in mTBI mice normalized this reduction
effect on mTBI-induced LHb hyperexcitability (APs on depolarization) (LHb neurons; late intervention, single 10 mg/kg i.p., n=31 cells/5 mice): normalized this hyperexcitability to sham levels
fast afterhyperpolarization (fAHP) amplitude of LHb neurons (LHb neurons; late intervention, single 10 mg/kg i.p., vs mTBI+vehicle p<0.05, one-way ANOVA): significantly diminished
effect on mTBI-enhanced Ih currents in LHb neurons (LHb neurons; late intervention, single 10 mg/kg i.p., vs sham+vehicle p<0.0001): exaggerated this effect
Kd ([1]; PWR, receptor-free egg phosphatidylcholine (eggPC) control membranes, read-out: Kd, baseline membrane partitioning affinity): 1.35 nM
functional potency at VPAC1 receptors (VPAC1 receptors): picomolar functional potency
fold increase of AUC over TES2300 in the CSF (brain dialysate) [2, 9]: 1.43 fold
fold increase of AUC over TES2300 in the plasma [2, 9]: 4.73 fold
Brain Dialysate: AUC ([2]; C57Bl/6J mice, n=4, SEM): 1071 ± 574 ng·min/mL
Brain Dialysate: Cmax [2, 4]: 74 ± 22 ng/mL
Brain Dialysate: Tmax [2, 5]: 8 min
Kd (human PAC1 receptor): 0.0045 nM
total grooming time, sucrose splash test ([3]; early intervention, 10 mg/kg i.p. x5, n=12): no effect
latency to groom, sucrose splash test ([3]; early intervention, 10 mg/kg i.p. x5, n=12, vs mTBI+vehicle p<0.05, one-way ANOVA): effective in preventing the prolonged grooming latency
latency to groom, sucrose splash test ([3]; late intervention, single 10 mg/kg i.p., n=11, vs sham or early TES2320 p<0.01): continued to exhibit increased grooming latency
total grooming time, sucrose splash test ([3]; mouse, in vivo, ip, 10 mg/kg): significantly decreased the total grooming time
Tmax (in vivo): 10 min
AUC(0-t) (in vivo; SEM): 101 ng·h/mL
Cmax (in vivo; SEM): 313 ± 62 ng/mL
half-life (in vivo; SEM): 13 ± 6 min
